Source: patent publication US6573275B1, “Bicyclic amines” (Syngenta Limited, priority 1995, dated 2003)

These compounds were tested on peach aphid (Myzus persicae) (assay: Insecticidal test against peach aphid, infested Chinese cabbage leaves sprayed). Settings: peach aphid (Myzus persicae) on Chinese cabbage leaves, sprayed with 500 ppm composition unless otherwise stated, mortality assessed after 3 days.
Format: in vivo
Protocol: This Example illustrates the insecticidal properties of the compounds of Formula I. The activity of the compounds of Formula I was determined using a variety of pests. The pests were treated with a liquid composition containing 500 parts per million (ppm) by weight of the compound unless otherwise stated. The compositions were made by dissolving the compound in acetone and ethanol (50:50) mixture and diluting the solutions with water containing 0.05% by weight of a wetting agent sold under the trade name “SYNPERONIC” NP8 until the liquid composition contained the required concentration of the compound. “SYNPERONIC” is a Registered Trade Mark.
The test procedure adopted with regard to each pest was basically the same and comprised supporting a number of the pests on a medium which was usually a substrate, a host plant or a foodstuff on which the pests feed, and treating either or both the medium and the pests with the compositions. The mortality of the pests was then assessed at periods usually varying from two to five days after the treatment.
In this test Chinese cabbage leaves were infested with aphids, the infested leaves were sprayed with the test composition, and the mortality assessed after 3 days.

| Structure (SMILES) | Score (grading of mortality) |
| --- | --- |
| COC(=O)C(C)N1C2CCC1CC(C#N)(c1cncc(Cl)c1)C2 (racemic) [Compound 212] | A (A indicates 80-100% mortality) |
| COc1ccc(C2(C#N)CC3CCC(C2)N3Cc2ccccc2)cc1 (single isomer, unassigned) [Compound 6] | C (C indicates less than 40% mortality) |
| COc1ccc(C2(C#N)CC3CCC(C2)N3Cc2ccccc2)cc1 (single isomer, unassigned) [Compound 7] | C (C indicates less than 40% mortality) |
| N#CC1(c2ccccc2)CC2CCC(C1)N2Cc1ccccc1 (single isomer, unassigned) [Compound 31] | C (C indicates less than 40% mortality) |
| N#CC1(c2ccccc2)CC2CCC(C1)N2Cc1ccccc1 (single isomer, unassigned) [Compound 32] | A (A indicates 80-100% mortality) |
| COC(=O)C(C)N1C2CCC1CC(C#N)(c1cncc(Cl)c1)C2 (single isomer, unassigned) [Compound 211] | A (A indicates 80-100% mortality) |
| COC(=O)C(C)N1C2CCC1CC(C#N)(c1cncc(Cl)c1)C2 (single isomer, unassigned) [Compound 213] | A (A indicates 80-100% mortality) |
| CN1C2CCC1CC(C#N)(c1cc(Cl)cc(Cl)c1)C2 (centres unmarked) [Compound 1] | A (A indicates 80-100% mortality) |
| CN1C2CCC1CC(C#N)(c1cc(F)cc(F)c1)C2 (stereo not drawn) [Compound 2, exo-3-(3,5-difluorophenyl)-endo-3-cyano-8-methyl-8-azabicyclo[3.2.1]octane] | A (A indicates 80-100% mortality) |
| CN1C2CCC1CC(C#N)(c1cccc(F)c1F)C2 (centres unmarked) [Compound 3] | A (A indicates 80-100% mortality) |
| CN1C2CCC1CC(C#N)(c1c(F)c(F)c(F)c(F)c1F)C2 (centres unmarked) [Compound 4] | A (A indicates 80-100% mortality) |
| CN1C2CCC1CC(C#N)(c1cccc(Cl)c1Cl)C2 (centres unmarked) [Compound 5] | A (A indicates 80-100% mortality) |
| N#CC1(c2ccccc2)CC2CCC(C1)N2Cc1ccccc1 (centres unmarked) [Compound 8, 3-phenyl-3-cyano-8-benzyl-8-azabicyclo[3.2.1]octane] | A (A indicates 80-100% mortality) |
| N#CC1(c2cc(F)cc(F)c2)CC2CCC(C1)N2 (centres unmarked) [Compound 9] | A (A indicates 80-100% mortality) |
| N#CC1(c2cc(F)cc(F)c2)CC2CCC(C1)N2Cc1ccccc1 (centres unmarked) [Compound 10] | A (A indicates 80-100% mortality) |
| N#CC1(c2cc(F)cc(F)c2)CC2CCC(C1)N2Cc1cnc(Cl)c(Cl)c1 (centres unmarked) [Compound 11] | A (A indicates 80-100% mortality) |
| N#CC1(c2cc(F)cc(F)c2)CC2CCC(C1)N2Cc1ccccn1 (centres unmarked) [Compound 12] | A (A indicates 80-100% mortality) |
| Cc1cccc(CN2C3CCC2CC(C#N)(c2cc(F)cc(F)c2)C3)c1 (centres unmarked) [Compound 13] | B (B indicates 40-79% mortality) |
| N#CC1(c2cc(F)cc(F)c2)CC2CCC(C1)N2Cc1ccc(Cl)cc1 (centres unmarked) [Compound 14] | A (A indicates 80-100% mortality) |
| N#CC1(c2cc(F)cc(F)c2)CC2CCC(C1)N2Cc1cccnc1 (centres unmarked) [Compound 15] | A (A indicates 80-100% mortality) |
| N#CC1(c2cc(F)cc(F)c2)CC2CCC(C1)N2Cc1cc(Cl)cc(Cl)c1 (centres unmarked) [Compound 17] | C (C indicates less than 40% mortality) |
| N#CC1(c2cc(F)cc(F)c2)CC2CCC(C1)N2CC=C(F)F (centres unmarked) [Compound 18] | A (A indicates 80-100% mortality) |

| Structure (SMILES) | Score (grading of mortality) |
| --- | --- |
| N#CC1(c2cc(F)cc(F)c2)CC2CCC(C1)N2CC(O)c1ccccc1 (centres unmarked) [Compound 19] | C (C indicates less than 40% mortality) |
| N#CC1(c2cc(F)cc(F)c2)CC2CCC(C1)N2C(CO)c1ccccc1 (centres unmarked) [Compound 20] | C (C indicates less than 40% mortality) |
| C=CCN1C2CCC1CC(C#N)(c1cc(F)cc(F)c1)C2 (centres unmarked) [Compound 21] | A (A indicates 80-100% mortality) |
| C#CCN1C2CCC1CC(C#N)(c1cc(F)cc(F)c1)C2 (centres unmarked) [Compound 22] | A (A indicates 80-100% mortality) |
| N#CC1(c2cc(F)cc(F)c2)CC2CCC(C1)N2CCF (centres unmarked) [Compound 23] | A (A indicates 80-100% mortality) |
| N#CC1(c2cc(F)cc(F)c2)CC2CCC(C1)N2CCO (centres unmarked) [Compound 24] | A (A indicates 80-100% mortality) |
| COCCN1C2CCC1CC(C#N)(c1cc(F)cc(F)c1)C2 (centres unmarked) [Compound 25] | A (A indicates 80-100% mortality) |
| N#CCCN1C2CCC1CC(C#N)(c1cc(F)cc(F)c1)C2 (centres unmarked) [Compound 26] | B (B indicates 40-79% mortality) |
| N#CC1(c2cc(F)cc(F)c2)CC2CCC(C1)N2Cc1ccc(Cl)s1 (centres unmarked) [Compound 27] | A (A indicates 80-100% mortality) |
| N#CC1(c2cc(F)cc(F)c2)CC2CCC(C1)N2c1cccc(Cl)n1 (centres unmarked) [Compound 28] | C (C indicates less than 40% mortality) |
| Cc1ncc(CN2C3CCC2CC(C#N)(c2cc(F)cc(F)c2)C3)s1 (centres unmarked) [Compound 29] | B (B indicates 40-79% mortality) |
| COC(=N)CN1C2CCC1CC(C#N)(c1cc(F)cc(F)c1)C2 (centres unmarked) [Compound 30] | A (A indicates 80-100% mortality) |
| CN1C2CCC1CC(C#N)(c1cccnc1)C2 (stereo not drawn) [Compound 33, exo-3-(pyrid-3-yl)-endo-3-cyano-8-methyl-8-azabicyclo[3.2.1]octane] | A (A indicates 80-100% mortality) |
| N#C[C@@]1(c2cccnc2)C[C@H]2CC[C@@H](C1)N2CCF [Compound 34, exo-3-(pyrid-3-yl)-endo-3-cyano-8-(2-fluoroethyl)-8-azabicyclo[3.2.1]octane] | A (A indicates 80-100% mortality) |
| C=CCN1C2CCC1CC(C#N)(c1cccnc1)C2 (centres unmarked) [Compound 35] | A (A indicates 80-100% mortality) |
| N#CC1(c2cccnc2)CC2CCC(C1)N2 (stereo not drawn) [Compound 36, exo-3-(pyrid-3-yl)-endo-3-cyano-8-azabicyclo[3.2.1]octane] | A (A indicates 80-100% mortality) |
| N#CC1(c2cccnc2)CC2CCC(C1)N2Cc1ccccc1 (stereo not drawn) [Compound 37, exo-3-(pyrid-3-yl)-endo-3-cyano-8-benzyl-8-azabicyclo[3.2.1]octane] | A (A indicates 80-100% mortality) |
| CCN1C2CCC1CC(C#N)(c1cccnc1)C2 (centres unmarked) [Compound 38] | A (A indicates 80-100% mortality) |
| CC(C)(C)OC(=O)CN1C2CCC1CC(C#N)(c1cccnc1)C2 (centres unmarked) [Compound 39] | C (C indicates less than 40% mortality) |
| C[n+]1cccc(C2(C#N)CC3CCC(C2)N3C(=O)OC(C)(C)C)c1.[I-] (centres unmarked) [Compound 40] | A (A indicates 80-100% mortality) |
| CN1C2CCC1CC(C#N)(c1ccc(Cl)nn1)C2 (stereo not drawn) [Compound 41, exo-3-(6-chloropyridazin-3-yl)-endo-3-cyano-8-methyl-8-azabicyclo[3.2.1]octane] | A (A indicates 80-100% mortality) |
| CCCN1C2CCC1CC(C#N)(c1cccnc1)C2 (stereo not drawn) [Compound 42, exo-3-(pyrid-3-yl)-endo-3-cyano-8-(prop-1-yl)-8-azabicyclo[3.2.1]octane] | A (A indicates 80-100% mortality) |
